From ChEMBL document CHEMBL4311967, “Continued exploration and tail approach synthesis of benzenesulfonamides containing triazole and dual triazole moieties as carbonic anhydrase I, II, IV and IX inhibitors” (Eur J Med Chem, 2019)

Each molecule was assayed against Carbonic anhydrase 9 (Homo sapiens, UniProt Q16790) (assay: Inhibition of human carbonic anhydrase 9 assessed as reduction in CO2 hydration incubated for 1 hr by phenol red staining-based stopped flow assay).
A Ki of 2830 nM was found for `Cc1c(-c2nnc(SCC(=O)c3ccc(Br)cc3)[nH]2)nnn1-c1ccc(S(N)(=O)=O)cc1` in this work.
A Ki of 177 nM was found for `NS(=O)(=O)c1ccc(-n2nnc(-c3nnc(SCC(=O)c4ccc(F)cc4)[nH]3)c2-c2ccccc2)cc1` in this work.
A Ki of 177 nM was found for `NS(=O)(=O)c1ccc(-n2nnc(-c3nnc(SCC(=O)c4ccc(Br)cc4)[nH]3)c2-c2ccccc2)cc1` in this work.
A Ki of 2430 nM was found for `Cc1c(-c2nnc(SCC(=O)c3cccc([N+](=O)[O-])c3)[nH]2)nnn1-c1ccc(S(N)(=O)=O)cc1` in this work.
A Ki of 1470 nM was found for `Cc1c(-c2nnc(SCC(=O)c3cccc(Br)c3)[nH]2)nnn1-c1ccc(S(N)(=O)=O)cc1` in this work.
A Ki of 3020 nM was found for `Cc1c(-c2nnc(SCC(=O)c3ccc(F)cc3)[nH]2)nnn1-c1ccc(S(N)(=O)=O)cc1` in this work.
A Ki of 3070 nM was found for `Cc1ccc(C(=O)CSc2nnc(-c3nnn(-c4ccc(S(N)(=O)=O)cc4)c3C)[nH]2)cc1` in this work.
A Ki of 278 nM was found for `NS(=O)(=O)c1ccc(-n2nnc(-c3nnc(SCC(=O)c4cccc(Br)c4)[nH]3)c2-c2ccccc2)cc1` in this work.
A Ki of 477 nM was found for `NS(=O)(=O)c1ccc(-n2nnc(-c3nnc(SCC(=O)c4ccc(Cl)cc4)[nH]3)c2-c2ccccc2)cc1` in this work.
A Ki of 294 nM was found for `Cc1ccc(C(=O)CSc2nnc(-c3nnn(-c4ccc(S(N)(=O)=O)cc4)c3-c3ccccc3)[nH]2)cc1` in this work.
A Ki of 111 nM was found for `NC(=S)NNC(=O)c1nnn(-c2ccc(S(N)(=O)=O)cc2)c1-c1ccccc1` in this work.
A Ki of 226 nM was found for `Cc1c(-c2nnc(SCC(=O)c3ccc(-c4ccccc4)cc3)[nH]2)nnn1-c1ccc(S(N)(=O)=O)cc1` in this work.
A Ki of 3060 nM was found for `Cc1c(-c2nnc(SCC(=O)c3ccc([N+](=O)[O-])cc3)[nH]2)nnn1-c1ccc(S(N)(=O)=O)cc1` in this work.
A Ki of 3190 nM was found for `Cc1c(-c2nnc(SCC(=O)c3ccc(Cl)cc3)[nH]2)nnn1-c1ccc(S(N)(=O)=O)cc1` in this work.
A Ki of 734 nM was found for `NS(=O)(=O)c1ccc(-n2nnc(-c3nnc(SCC(=O)c4ccc(-c5ccccc5)cc4)[nH]3)c2-c2ccccc2)cc1` in this work.
A Ki of 1240 nM was found for `Cc1c(-c2n[nH]c(=S)[nH]2)nnn1-c1ccc(S(N)(=O)=O)cc1` in this work.
A Ki of 51 nM was found for `NS(=O)(=O)c1ccc(-n2nnc(-c3n[nH]c(=S)[nH]3)c2-c2ccccc2)cc1` in this work.
A Ki of 135 nM was found for `NS(=O)(=O)c1ccc(-n2nnc(-c3nnc(SCC(=O)c4ccccc4)[nH]3)c2-c2ccccc2)cc1` in this work.
A Ki of 3200 nM was found for `Cc1c(-c2nnc(SCC(=O)c3ccccc3)[nH]2)nnn1-c1ccc(S(N)(=O)=O)cc1` in this work.
A Ki of 2970 nM was found for `Cc1c(C(=O)NNC(N)=S)nnn1-c1ccc(S(N)(=O)=O)cc1` in this work.
A Ki of 192 nM was found for `NS(=O)(=O)c1ccc(-n2nnc(-c3nnc(SCC(=O)c4cccc([N+](=O)[O-])c4)[nH]3)c2-c2ccccc2)cc1` in this work.
A Ki of 204 nM was found for `NS(=O)(=O)c1ccc(-n2nnc(-c3nnc(SCC(=O)c4ccc([N+](=O)[O-])cc4)[nH]3)c2-c2ccccc2)cc1` in this work.
